Source: US20020169166A1, “Benzimidazoles that are useful in treating sexual dysfunction” (priority 2001, published 2002)

Key:
[1] = system: Male Fitch ferrets; design: species or system ferret; conditions: in vivo, sc
Experimental: Male Fitch ferrets (body weights 1.0-1.5 kg) were obtained from Marshall Farms. Ferrets were fasted overnight before experimentation. Apomorphine or a compound of the present invention was administrated subcutaneously; animals were placed individually in observation cages and the drug-induced emesis and signs of nausea were determined (by direct observation) for a period of 90 minutes following drug injection. Nausea was characterized by behaviors such as licking, gagging, backing, head burying, and intense abdominal grooming. Emesis was usually preceded by these behaviors and was characterized by rhythmic abdominal contractions which were associated with vomiting or retching movement.
Sterile saline was used as vehicle. Six animals were used per dose.

[2] = system: Wistar rats; assay: Rat Penile Erection Model; format: in vivo; conditions: for Induced Penile Erection in Rats, Incidence (%): subcutaneous, animals with 1 or more erections in 60 minutes; for induced penile erections in rats (significance): subcutaneous administration, doses of 0.01 μmol/kg to 0.10 μmol/kg
Experimental: Wistar rats were used as a primary animal model to study penile erection in vivo. All experiments were carried out between 9:00 AM and 3:00 PM in a diffusely illuminated testing room with a red light. Animals were weighed and allowed to adapt to the testing room for 60 minutes before the beginning of experiments. Rats were placed individually in a transparent cage (20×30×30 cm) after drug injection.
(L)-Ascorbic acid in saline (1 mg/mL) was used as vehicle. Twelve animals were used per dose.

Structure (SMILES) | melting point [°C] | further results
c1ccc(N2CCN(Cc3nc4ccccc4[nH]3)CC2)nc1 [2-[(4-pyridin-2-ylpiperazin-1-yl)methyl]-1H-benzimidazole] | – | emesis in ferrets (in words) [1]: did not induce emesis; Induced Penile Erection in Rats, Incidence (%) ([2]; dose 0.003 μmol/kg, Table 1): 25%; Induced Penile Erection in Rats, Incidence (%) ([2]; dose 0.01 μmol/kg, Table 1): 50%; Induced Penile Erection in Rats, Incidence (%) ([2]; dose 0.03 μmol/kg, Table 1): 83%; Induced Penile Erection in Rats, Incidence (%) ([2]; dose 0.10 μmol/kg, Table 1): 58%; induced penile erections in rats (significance) [2]: statistically significant
Oc1ccc(N2CCN(Cc3nc4ccccc4[nH]3)CC2)nc1 [6-[4-(1H-benzimidazol-2-ylmethyl)piperazin-1-yl]pyridin-3-ol] | 144 to 145 | Induced Penile Erection in Rats, Incidence (%) ([2]; dose 0.01 μmol/kg, Table 2): 42%; Induced Penile Erection in Rats, Incidence (%) ([2]; dose 0.03 μmol/kg, Table 2): 58%; Induced Penile Erection in Rats, Incidence (%) ([2]; dose 0.1 μmol/kg, Table 2): 58%; Induced Penile Erection in Rats, Incidence (%) ([2]; dose 0.3 μmol/kg, Table 2): 33%; induced penile erections in rats (significance) [2]: statistically significant
CN1CCc2cccc3c2[C@H]1Cc1ccc(O)c(O)c1-3 [Apomorphine, (6aR) 5,6,6a,7-tetrahydro-6-methyl-4H-dibenzo[de,g]quinoline-10,11-diol, reference compound] | – | incidence of rat penile erections ([2]; positive control of Table 1, dose 0.1 μmol/kg): 83%; incidence of rat penile erections ([2]; positive control of Table 2, dose 0.1 μmol/kg): 93%
c1cnc(N2CCN(Cc3nc4ccccc4[nH]3)CC2)nc1 [Example 2, 2-[(4-pyrimidin-2-ylpiperazin-1-yl)methyl]-1H-benzimidazole] | 198 to 200 | –
N#Cc1cccnc1N1CCN(Cc2nc3ccccc3[nH]2)CC1 [Example 4, 2-[4-(1H-benzimidazol-2-ylmethyl)piperazin-1-yl]nicotinonitrile] | 208 to 210 | –
c1ccc2[nH]c(CN3CCN(c4nccs4)CC3)nc2c1 [Example 7, 2-{[4-(1,3-thiazol-2-yl)piperazin-1-yl]methyl}-1H-benzimidazole] | 203 to 205 | –
O=C(N1CCCC1)n1c(CN2CCN(c3ccccn3)CC2)nc2ccccc21 [Example 9, 2-[(4-pyridin-2-ylpiperazin-1-yl)methyl]-1-(pyrrolidin-1-ylcarbonyl)-1H-benzimidazole] | 120 to 121 | –
CN(C)C(=O)n1c(CN2CCN(c3ccccn3)CC2)nc2ccccc21 [Example 10, N,N-dimethyl-2-[(4-pyridin-2-ylpiperazin-1-yl)methyl]-1H-benzimidazole-1-carboxamide] | 174 to 176 | –
N#Cc1ccccc1N1CCN(Cc2nc3ccccc3[nH]2)CC1 [Example 12, 2-[4-(1H-benzimidazol-2-ylmethyl)piperazin-1-yl]benzonitrile] | 236 to 237 | –
Clc1ccccc1N1CCN(Cc2nc3ccccc3[nH]2)CC1 [Example 13, 2-{[4-(2-chlorophenyl)piperazin-1-yl]methyl}-1H-benzimidazole] | 245 to 246 | –
Fc1ccccc1N1CCN(Cc2nc3ccccc3[nH]2)CC1 [Example 14, 2-{[4-(2-fluorophenyl)piperazin-1-yl]methyl}-1H-benzimidazole] | 262 to 264 | –
Oc1ccc(N2CCN(Cc3nc4ccccc4[nH]3)CC2)cc1 [Example 17, 4-[4-(1H-benzimidazol-2-ylmethyl)piperazin-1-yl]phenol] | 206 to 209 | –

Further lines, with some results ahead:

melting point [°C] | Structure (SMILES) | further results
214 to 216 | CSc1ccccc1N1CCN(Cc2nc3ccccc3[nH]2)CC1 [Example 18, 2-({4-[2-(methylthio)phenyl]piperazin-1-yl}methyl)-1H-benzimidazole] | –
95 to 100 | CCOc1ccccc1N1CCN(Cc2nc3ccccc3[nH]2)CC1 [Example 19, 2-{[4-(2-ethoxyphenyl)piperazin-1-yl]methyl}-1H-benzimidazole] | –
208 to 216 | Oc1ccccc1N1CCN(Cc2nc3ccccc3[nH]2)CC1 [Example 20, 2-[4-(1H-benzimidazol-2-ylmethyl)piperazin-1-yl]phenol] | –
207 to 209 | CC1CN(c2ccccn2)CCN1Cc1nc2ccccc2[nH]1 (stereo not drawn) [Example 24, 2-[(2-methyl-4-pyridin-2-ylpiperazin-1-yl)methyl]-1H-benzimidazole] | –
149 to 151 | C[C@H]1CN(c2ccccn2)CCN1Cc1nc2ccccc2[nH]1 [Example 25, 2-{[(2S)-2-methyl-4-pyridin-2-ylpiperazin-1-yl]methyl}-1H-benzimidazole] | –
151 to 153 | C[C@@H]1CN(c2ccccn2)CCN1Cc1nc2ccccc2[nH]1 [Example 26, 2-{[(2R)-2-methyl-4-pyridin-2-ylpiperazin-1-yl]methyl}-1H-benzimidazole] | –
210 to 212 | Fc1cccnc1N1CCN(Cc2nc3ccccc3[nH]2)CC1 [Example 28, 2-{[4-(3-fluoropyridin-2-yl)piperazin-1-yl]methyl}-1H-benzimidazole] | –
